The AUC(0-t) is exposure summed from dosing to a finite time, without extrapolation to infinity. A word on the AUC(0-inf): it is the area under the concentration-time curve extrapolated to infinity. For orientation: Cmax means the peak of the concentration-time curve. As a reminder, the Tmax is the time at which the peak concentration occurs. As usually defined, the half-life is how long it takes for the measured level to halve.

The test system of one data set is SD rats. Briefly: Freund's adjuvant induced hind paw edema, anti-inflammatory effect. It counts as in vivo, rat.
Data set [1] can be described thus: Pharmacokinetics of aconitine in plasma after oral administration. The format is in vivo. The note with it: male, Sprague-Dawley, rat, 1 mg/kg; for half-life: t1/2z.
[2] abbreviates: Group A: aconitine at 1 mg/kg oral, alone.
Setting [3] is: Group B: aconitine at 1 mg/kg + liquiritin at 10 mg/kg oral.
[4] abbreviates: Group D: aconitine at 1 mg/kg + glycyrrhizic acid at 10 mg/kg oral.
Setting [5] is: Group E: aconitine at 1 mg/kg + glycyrrhetinic acid at 10 mg/kg oral.
The mark [6] stands for this setting: 0 h, 10 mg/kg oral in combination with aconitine 1 mg/kg.
[7] abbreviates: 1 h, 10 mg/kg oral in combination with aconitine 1 mg/kg.
[8] abbreviates: 2 h, 10 mg/kg oral in combination with aconitine 1 mg/kg.
Where [9] appears, read: 4 h, 10 mg/kg oral in combination with aconitine 1 mg/kg.
Where [10] appears, read: 6 h, 10 mg/kg oral in combination with aconitine 1 mg/kg.

Consider `CCN1C[C@]2(COC)[C@H](O)C[C@H](OC)[C@@]34[C@@H]5C[C@@]6(O)[C@H](OC(=O)c7ccccc7)[C@@H]5[C@@](OC(C)=O)([C@@H]([C@H](OC)[C@H]23)[C@@H]14)[C@@H](O)[C@@H]6OC` [Aconitine, aconitine], for which the hind paw volume in the data set on SD rats (0 h, 1 mg/kg oral, alone) is 1.70 ± 0.06 mL; in the data set with SD rats (1 h, 1 mg/kg oral, alone), 1.87 ± 0.10∗ mL; in the data set on SD rats (2 h, 1 mg/kg oral, alone), 1.99 ± 0.15 mL; in the data set with SD rats (4 h, 1 mg/kg oral, alone), 2.02 ± 0.12∗ mL; in the data set with SD rats (6 h, 1 mg/kg oral, alone) it was 2.19 ± 0.05∗ mL. Also, the AUC(0-t) came out at 33.7 ± 7.47 ng·h/mL in data set [1]; 25.8 ± 4.36 ng·h/mL in data set [1] (setting [2]); 30 ± 6.63 ng·h/mL in data set [1] (setting [3]); 29.1 ± 4.44 ng·h/mL in data set [1] (setting [4]); 19.9 ± 3.61 ng·h/mL in data set [1] (setting [5]). The AUC(0-inf) in data set [1] is 34.5 ± 7.07 ng·h/mL; in data set [1] (setting [2]) it was 29.1 ± 6.15 ng·h/mL; in data set [1] (setting [3]), 31.9 ± 5.6 ng·h/mL; in data set [1] (setting [4]) it was 33.6 ± 6.93 ng·h/mL; in data set [1] (setting [5]) it was 20.7 ± 3.55 ng·h/mL. Moreover, the Cmax in data set [1] stood at 9.19 ± 1.38 ng/mL; in data set [1] (setting [2]) it was 4.8 ± 0.966 ng/mL; in data set [1] (setting [3]), 5.77 ± 0.831 ng/mL; in data set [1] (setting [4]), 5.73 ± 0.7 ng/mL; in data set [1] (setting [5]) it was 5.88 ± 0.73 ng/mL. Also, the time to peak (Tmax) in data set [1] stood at 0.667 ± 0.258 h; in data set [1] (setting [2]), 1.08 ± 0.376 h; in data set [1] (setting [3]), 1.67 ± 0.408 h; in data set [1] (setting [4]) it was 1.42 ± 0.585 h; in data set [1] (setting [5]), 0.833 ± 0.258 h. Further, the half-life in data set [1] was 2.19 ± 0.249 h; in data set [1] (setting [2]), 3.87 ± 1.02 h; in data set [1] (setting [3]) it was 3.26 ± 1.48 h; in data set [1] (setting [4]), 3.48 ± 1.06 h; in data set [1] (setting [5]), 1.9 ± 0.423 h.

As to `CC1(C)[C@@H](O)CC[C@]2(C)[C@H]3C(=O)C=C4[C@@H]5C[C@@](C)(C(=O)O)CC[C@]5(C)CC[C@@]4(C)[C@]3(C)CC[C@@H]12` [Glycyrrhetinic acid, glycyrrhetinic acid], the hind paw volume is on record as 1.71 ± 0.05 mL in the data set with SD rats (setting [6]); 1.80 ± 0.02∗# mL with SD rats (setting [7]); 1.79 ± 0.03∗# mL with SD rats (setting [8]); 1.91 ± 0.09∗ mL with SD rats (setting [9]); 2.10 ± 0.06∗# mL in the data set on SD rats (setting [10]).

As to `CC1(C)[C@@H](O[C@H]2O[C@H](C(=O)O)[C@@H](O)[C@H](O)[C@H]2O[C@@H]2O[C@H](C(=O)O)[C@@H](O)[C@H](O)[C@H]2O)CC[C@]2(C)[C@H]3C(=O)C=C4[C@@H]5C[C@@](C)(C(=O)O)CC[C@]5(C)CC[C@@]4(C)[C@]3(C)CC[C@@H]12` [Glycyrrhizic acid, glycyrrhizic acid], the hind paw volume in the data set on SD rats (setting [6]) is 1.72 ± 0.03 mL; with SD rats (setting [7]) it was 1.92 ± 0.05∗ mL; in the data set with SD rats (setting [8]), 1.96 ± 0.09∗ mL; in the data set on SD rats (setting [9]), 1.99 ± 0.11∗ mL; with SD rats (setting [10]), 2.14 ± 0.08∗ mL.

Take `COc1ccc2c(c1)c(CC(=O)O)c(C)n2C(=O)c1ccc(Cl)cc1` [Indomethacin, reference compound]: the hind paw volume with SD rats (0 h, 1 mg/kg oral, alone) was 1.67 ± 0.09 mL; in the data set with SD rats (1 h, 1 mg/kg oral, alone) it was 2.00 ± 0.11 mL; in the data set on SD rats (2 h, 1 mg/kg oral, alone), 2.04 ± 0.15 mL; in the data set on SD rats (4 h, 1 mg/kg oral, alone), 2.15 ± 0.10∗ mL; in the data set on SD rats (6 h, 1 mg/kg oral, alone), 2.19 ± 0.18∗ mL.

As for `O=C1C[C@@H](c2ccc(O[C@@H]3O[C@H](CO)[C@@H](O)[C@H](O)[C@H]3O)cc2)Oc2cc(O)ccc21` [Liquiritin, liquiritin], the hind paw volume in the data set with SD rats (setting [6]) was 1.70 ± 0.05 mL; with SD rats (setting [7]), 1.78 ± 0.12∗ mL; with SD rats (setting [8]), 1.81 ± 0.10∗# mL; with SD rats (setting [9]) it was 1.83 ± 0.09∗# mL; with SD rats (setting [10]) it was 1.96 ± 0.14∗# mL.

The record behind these values is publication PMC7192969 (Journal of Pharmaceutical Analysis, 2019).
